Measured values published in the supplement of paper PMC10307832.

What was measured:
Assay in all cases: relative viability (nuclei count vs DMSO), 5 days (fraction); higher = more cells survive
BX 795 + Trametinib = compound: O=C(NCCCNc1nc(Nc2cccc(NC(=O)N3CCCC3)c2)ncc1I)c1cccs1 [BX 795] + CC(=O)Nc1cccc(-n2c(=O)n(C3CC3)c(=O)c3c(Nc4ccc(I)cc4F)n(C)c(=O)c(C)c32)c1 [Trametinib] (partner 0.02 µM)
Outline: (§1)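 Dosing by pin tool came one day after lung cancer cell lines were seeded in 1536-well plates, using either one drug or a fixed anchor-drug dose plus five library-drug doses (not always all listed) in √10 steps. After 5 days, nuclei were counted on 4× images. Relative viability is treated-well nuclei count divided by vehicle-well nuclei count, and values are medians of duplicate plates.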

BX 795 + Lapatinib = compound: O=C(NCCCNc1nc(Nc2cccc(NC(=O)N3CCCC3)c2)ncc1I)c1cccs1 [BX 795] + CS(=O)(=O)CCNCc1ccc(-c2ccc3ncnc(Nc4ccc(OCc5cccc(F)c5)c(Cl)c4)c3c2)o1 [Lapatinib] (partner 2 µM)
Outline: as §1

BX 795 + Alpelisib = compound: O=C(NCCCNc1nc(Nc2cccc(NC(=O)N3CCCC3)c2)ncc1I)c1cccs1 [BX 795] + Cc1nc(NC(=O)N2CCC[C@H]2C(N)=O)sc1-c1ccnc(C(C)(C)C(F)(F)F)c1 [Alpelisib] (partner 2 µM)
Outline: as §1

BX 795 + Luminespib = compound: O=C(NCCCNc1nc(Nc2cccc(NC(=O)N3CCCC3)c2)ncc1I)c1cccs1 [BX 795] + CCNC(=O)c1noc(-c2cc(C(C)C)c(O)cc2O)c1-c1ccc(CN2CCOCC2)cc1 [Luminespib] (partner 0.01 µM)
Outline: as §1

BX 795 + Pemetrexed = compound: O=C(NCCCNc1nc(Nc2cccc(NC(=O)N3CCCC3)c2)ncc1I)c1cccs1 [BX 795] + Nc1nc2[nH]cc(CCc3ccc(C(=O)N[C@@H](CCC(=O)O)C(=O)O)cc3)c2c(=O)[nH]1 [Pemetrexed] (partner 0.2 µM)
Outline: as §1

Row | Cell Line | relative viability (BX 795 + Trametinib; first compound 0.04 µM) | relative viability (BX 795 + Trametinib; first compound 0.1265 µM) | relative viability (BX 795 + Trametinib; first compound 0.4 µM) | relative viability (BX 795 + Trametinib; first compound 1.265 µM) | relative viability (BX 795 + Lapatinib; first compound 0.04 µM) | relative viability (BX 795 + Lapatinib; first compound 0.1265 µM) | relative viability (BX 795 + Lapatinib; first compound 0.4 µM) | relative viability (BX 795 + Lapatinib; first compound 1.265 µM) | relative viability (BX 795 + Alpelisib; first compound 0.04 µM) | relative viability (BX 795 + Alpelisib; first compound 0.1265 µM) | relative viability (BX 795 + Alpelisib; first compound 0.4 µM) | relative viability (BX 795 + Alpelisib; first compound 1.265 µM) | relative viability (BX 795 + Luminespib; first compound 0.04 µM) | relative viability (BX 795 + Luminespib; first compound 0.1265 µM) | relative viability (BX 795 + Luminespib; first compound 0.4 µM) | relative viability (BX 795 + Luminespib; first compound 1.265 µM) | relative viability (BX 795 + Pemetrexed; first compound 0.04 µM) | relative viability (BX 795 + Pemetrexed; first compound 0.1265 µM) | relative viability (BX 795 + Pemetrexed; first compound 0.4 µM) | relative viability (BX 795 + Pemetrexed; first compound 1.265 µM)
1 | 201T | 0.763 | 0.749 | 0.76 | 0.766 | 1.1 | 1.04 | 1.12 | 1.01 | 1.01 | 1.02 | 1.1 | 1.03 | 1.03 | 1.07 | 1.19 | 1.04 | 0.302 | 0.305 | 0.298 | 0.304
2 | A549 | – | – | – | – | 0.999 | 0.88 | 1 | 0.146 | 0.761 | 0.731 | 0.6 | 0.267 | – | – | – | – | – | – | – | –
3 | A-427 | 0.757 | 0.733 | 0.72 | 0.625 | 0.842 | 1 | 1.06 | 0.886 | 1.1 | 1.1 | 1.1 | 1.03 | 0.779 | 0.866 | 0.643 | 0.665 | 1.02 | 0.925 | 1.08 | 0.849
4 | ABC-1 | – | – | – | – | 1.17 | 1.58 | 1.14 | 0.917 | 1.17 | 1.25 | 0.911 | 0.764 | 0.445 | 0.381 | 0.334 | 0.283 | – | – | – | –
5 | BEN | 1.12 | 1.12 | 0.933 | 1.13 | 0.663 | 0.841 | 0.607 | 0.672 | 1.06 | 1.16 | 1.06 | 0.995 | 0.458 | 0.432 | 0.351 | 0.312 | 0.803 | 0.766 | 0.771 | 0.771
6 | CAL-12T | 0.273 | 0.298 | 0.322 | 0.24 | 0.738 | 0.624 | 0.608 | 0.29 | 1.12 | 1.5 | 1.29 | 0.285 | 0.534 | 0.488 | 0.194 | 0.181 | 1.1 | 1.28 | 0.809 | 0.494
7 | COR-L23 | 0.622 | 0.628 | 0.509 | 0.344 | 1.14 | 1.17 | 0.884 | 0.663 | 0.882 | 0.838 | 0.98 | 0.356 | 0.576 | 0.573 | 0.71 | 0.197 | 0.204 | 0.188 | 0.176 | 0.171
8 | COR-L 105 | 0.47 | 0.403 | 0.389 | 0.421 | 0.354 | 0.334 | 0.308 | 0.293 | 1.08 | 0.84 | 0.745 | 0.412 | 0.879 | 0.835 | 0.788 | 0.849 | 1.12 | 1.02 | 0.816 | 0.882
9 | ChaGo-K-1 | 0.924 | 0.907 | 0.885 | 0.75 | – | – | – | – | – | – | – | – | 0.503 | 0.523 | 0.602 | 0.492 | 0.243 | 0.258 | 0.254 | 0.258
10 | EKVX | 0.358 | 0.298 | 0.382 | 0.351 | 0.248 | 0.367 | 0.243 | 0.208 | 0.841 | 0.933 | 0.808 | 0.837 | 0.893 | 0.977 | 0.825 | 0.79 | 0.309 | 0.379 | 0.228 | 0.386
11 | EMC-BAC-2 | 0.943 | 0.921 | 0.868 | 0.749 | 0.907 | 0.905 | 0.884 | 0.758 | 0.766 | 0.795 | 0.715 | 0.464 | 1.18 | 1.22 | 1.13 | 0.492 | 0.383 | 0.446 | 0.428 | 0.454
12 | EPLC-272H | 0.293 | 0.32 | 0.275 | 0.325 | 1.01 | – | 0.893 | 0.677 | 1 | – | 0.905 | 0.93 | 0.342 | 0.187 | 0.158 | 0.292 | 0.272 | 0.294 | 0.123 | 0.21
13 | H3255 | 0.616 | 0.666 | 0.655 | 0.565 | 0.289 | 0.234 | 0.256 | 0.255 | 0.873 | 0.845 | 0.759 | 0.584 | 0.891 | 0.852 | 0.979 | 0.891 | 0.615 | 0.531 | 0.584 | 0.509
14 | HARA | 0.75 | 0.625 | 1.16 | 0.533 | 0.714 | 0.564 | 0.753 | 0.697 | 0.752 | 0.82 | 1.2 | 0.605 | 0.588 | 0.838 | 0.907 | 0.656 | 0.21 | 0.227 | 0.195 | 0.227
